The values below are quoted from earlier work in article PMC7287799 (Molecules, 2020).

pKi: −log10 of the molar value.

The test system of the data set is E. coli IMPDH.

For orientation: pKi means −log10 of the Ki, conventionally taken in molar units. Take `NC(=O)c1ncn([C@@H]2O[C@H](CO)[C@@H](O)[C@H]2O)c1O` [Mizoribine]: the pKi is 6.30.
